Data published in US20060229433A1, “Modified antiviral peptides with increased activity and cell membrane affinity” (priority 2003, published 2006).
pIC50: −log10 of the molar value. Several values for one entry are separate records, joined by “and”; a condition that tells them apart may be missing. Equal entries are not always repeated. Square brackets hold non-standard residues; d marks the D form. Peptide text beside a SMILES is read from it. Ava = NCCCCC(=O)O

Legend:
Format in all cases: cell-based
HIV-1 NL 4-3 [1] = assay: HIV-1 infection of C8166 cells (syncytia formation, p24 ELISA) with HIV-1 NL 4-3; set-up: key: ++, +, (+), (+)− and − represent decreasing numbers of syncitia formed; ++, +, (+), (+)− and − represent decreasing numbers of syncitia formed; ++, +, (+), (+)− and − represent decreasing numbers of syncitia formed; ++, +, (+), (+)− and − represent decreasing numbers of syncitia formed; ++, +, (+), (+)− and − represent decreasing numbers of syncitia formed; conditions: Table 6
Method in brief: (§1)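 Infection was read out as syncytia and as cell-free p24 in supernatants (ELISA) from C8166 cells that received HIV-1 (1000 TCID50/ml, 1 h, 37 °C) after a 1 h peptide pretreatment. Peptide stayed on before, during and after adsorption. Toxicity was checked by daily trypan-blue counts.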

HIV-1 NL 4-3 [2] = assay: as above; set-up: key to syncitia formed, Day 4 / syncitia formed, Day 5 / syncitia formed, Day 6 / syncitia formed, Day 7: ++, +, (+), (+)− and − represent decreasing numbers of syncitia formed; ++, +, (+), (+)− and − represent decreasing numbers of syncitia formed; ++, +, (+), (+)− and − represent decreasing numbers of syncitia formed; ++, +, (+), (+)− and − represent decreasing numbers of syncitia formed; ++, +, (+), (+)− and − represent decreasing numbers of syncitia formed
Method in brief: as §1

HIV-1 NDK = assay: HIV-1 infection of C8166 cells (syncytia formation, p24 ELISA) with HIV-1 NDK; set-up: key to syncitia formed, Day 4 / syncitia formed, Day 5 / syncitia formed, Day 6 / syncitia formed, Day 7: ++, +, (+), (+)− and − represent decreasing numbers of syncitia formed; ++, +, (+), (+)− and − represent decreasing numbers of syncitia formed; ++, +, (+), (+)− and − represent decreasing numbers of syncitia formed; ++, +, (+), (+)− and − represent decreasing numbers of syncitia formed; ++, +, (+), (+)− and − represent decreasing numbers of syncitia formed; conditions: for P 24: P 24 after Day 7
Experimental: HIV-1 NL 4-3 isolate (Adachi et al., 1986; Barré-Sinoussi et al., 1983) and highly cytopathic Zairian HIV-1 NDK isolate (Ellrodt et al., 1984) was propagated in permissive CEM cells (Nara et al., 1987). Uninfected CEM and C8166 (Salahuddin et al., 1983) were maintained in RPMI 1640 (R10) with ultraglutamine (cambrex, Vervier, Belgium), penicillin (100 U/ml), streptomycin (100 μg/ml), and 10% heat-inactivated fetal calf serum (Cambrex).
Samples of 3×10^5/100 μL C8166 cells were preincubated in 96-well microtiter plates in culture medium containing various concentrations of peptide. After a 1 h treatment at 37° C., 100 μl of diluted viral solution of HIV-1 was added. The cells were exposed to the virus for 1 h at 37° C. at a multiplicity of infection of 1000 TCID50 per ml. The cells were washed three times and cultured at 3×10^5/ml of R10 with the treatment in 24-well plates incubated at 37° C. C8166 culture medium was replaced at Day-4 post-infection. The treatment was permanent before virus adsorption, during virus adsorption and after infection. Assays on C8166 cells have been performed at least twice and in duplicate. Toxicity was evaluated by daily cell count and trypan-blue exclusion assay. Infection of C8166 T-cells with HIV-1 was assessed by virus-induced cytopathic effects (syncytia formation) and by quantification of cell free p24 viral protein in the culture supernatants. Measurements of HIV-1 p24^gag concentration in the culture supernatants were achieved by ELISA (ALLIANCE® HIV-1 p24 kit, Perkin Elmer, life sciences, USA).

N=C(N)NCCC[C@H](NC(=O)CNC(=O)[C@@H]1CCCN1C(=O)CN)C(=O)NCCCCC(=O)O [GPGR valeric acid, GPGR-NHCH2CH2CH2CH2COOH] (H-GPGR[Ava]-OH; N-terminus assumed)
Day 4 syncitia formed (HIV-1 NL 4-3 [1]; 0.005 μM): −
Day 5 syncitia formed (HIV-1 NL 4-3 [1]; 0.005 μM): +
Day 6 syncitia formed (HIV-1 NL 4-3 [1]; 0.005 μM): ++
Day 7 syncitia formed (HIV-1 NL 4-3 [1]; 0.005 μM): ++
Day 4 syncitia formed (HIV-1 NL 4-3 [1]; 0.01 μM): −
Day 5 syncitia formed (HIV-1 NL 4-3 [1]; 0.01 μM): +
Day 6 syncitia formed (HIV-1 NL 4-3 [1]; 0.01 μM): ++
Day 7 syncitia formed (HIV-1 NL 4-3 [1]; 0.01 μM): ++
Day 4 syncitia formed (HIV-1 NL 4-3 [1]; 0.05 μM): −
Day 5 syncitia formed (HIV-1 NL 4-3 [1]; 0.05 μM): (+)
Day 6 syncitia formed (HIV-1 NL 4-3 [1]; 0.05 μM): +
Day 7 syncitia formed (HIV-1 NL 4-3 [1]; 0.05 μM): ++
Day 4 syncitia formed (HIV-1 NL 4-3 [1]; 0.1 μM): −
Day 5 syncitia formed (HIV-1 NL 4-3 [1]; 0.1 μM): (+)
Day 6 syncitia formed (HIV-1 NL 4-3 [1]; 0.1 μM): +
Day 7 syncitia formed (HIV-1 NL 4-3 [1]; 0.1 μM): +
Day 4 syncitia formed (HIV-1 NL 4-3 [1]; 0.5 μM): −
Day 5 syncitia formed (HIV-1 NL 4-3 [1]; 0.5 μM): −
Day 6 syncitia formed (HIV-1 NL 4-3 [1]; 0.5 μM): −
Day 7 syncitia formed (HIV-1 NL 4-3 [1]; 0.5 μM): +
Day 4 syncitia formed (HIV-1 NL 4-3 [1]; 1 μM): −
Day 5 syncitia formed (HIV-1 NL 4-3 [1]; 1 μM): −
Day 6 syncitia formed (HIV-1 NL 4-3 [1]; 1 μM): −
Day 7 syncitia formed (HIV-1 NL 4-3 [1]; 1 μM): +
Day 4 syncitia formed (HIV-1 NL 4-3 [1]; 5 μM): −
Day 5 syncitia formed (HIV-1 NL 4-3 [1]; 5 μM): −
Day 6 syncitia formed (HIV-1 NL 4-3 [1]; 5 μM): −
Day 7 syncitia formed (HIV-1 NL 4-3 [1]; 5 μM): −
syncitia formed, Day 4 (HIV-1 NL 4-3 [2]; 0.01 μM, C8166 cells): −
syncitia formed, Day 5 (HIV-1 NL 4-3 [2]; 0.01 μM, C8166 cells): +
syncitia formed, Day 6 (HIV-1 NL 4-3 [2]; 0.01 μM, C8166 cells): ++
syncitia formed, Day 7 (HIV-1 NL 4-3 [2]; 0.01 μM, Day 7, C8166 cells): ++/T and ++
syncitia formed, Day 4 (HIV-1 NL 4-3 [2]; 0.05 μM, C8166 cells): −
syncitia formed, Day 5 (HIV-1 NL 4-3 [2]; 0.05 μM, C8166 cells): (+)
syncitia formed, Day 6 (HIV-1 NL 4-3 [2]; 0.05 μM, C8166 cells): +
syncitia formed, Day 7 (HIV-1 NL 4-3 [2]; 0.05 μM, Day 7, C8166 cells): ++
P 24 (HIV-1 NL 4-3 [2]; 0.05 μM, P 24 after Day 7, C8166 cells): 9860 pg/mL and 17800 pg/mL
syncitia formed, Day 4 (HIV-1 NL 4-3 [2]; 0.1 μM, C8166 cells): −
syncitia formed, Day 5 (HIV-1 NL 4-3 [2]; 0.1 μM, C8166 cells): (+)
syncitia formed, Day 6 (HIV-1 NL 4-3 [2]; 0.1 μM, C8166 cells): +
syncitia formed, Day 7 (HIV-1 NL 4-3 [2]; 0.1 μM, Day 7, C8166 cells): +
syncitia formed, Day 4 (HIV-1 NL 4-3 [2]; 0.5 μM, C8166 cells): −
syncitia formed, Day 5 (HIV-1 NL 4-3 [2]; 0.5 μM, C8166 cells): −
syncitia formed, Day 6 (HIV-1 NL 4-3 [2]; 0.5 μM, C8166 cells): −
syncitia formed, Day 7 (HIV-1 NL 4-3 [2]; 0.5 μM, Day 7, C8166 cells): +
P 24 (HIV-1 NL 4-3 [2]; 0.5 μM, P 24 after Day 7, C8166 cells): 2740 pg/mL and 2840 pg/mL
syncitia formed, Day 4 (HIV-1 NL 4-3 [2]; 1 μM, C8166 cells): −
syncitia formed, Day 5 (HIV-1 NL 4-3 [2]; 1 μM, C8166 cells): −
syncitia formed, Day 6 (HIV-1 NL 4-3 [2]; 1 μM, C8166 cells): −
syncitia formed, Day 7 (HIV-1 NL 4-3 [2]; 1 μM, Day 7, C8166 cells): −
P 24 (HIV-1 NL 4-3 [2]; 1 μM, P 24 after Day 7, C8166 cells): 53 pg/mL and 64 pg/mL
syncitia formed, Day 4 (HIV-1 NL 4-3 [2]; 5 μM, C8166 cells): −
syncitia formed, Day 5 (HIV-1 NL 4-3 [2]; 5 μM, C8166 cells): −
syncitia formed, Day 6 (HIV-1 NL 4-3 [2]; 5 μM, C8166 cells): −
syncitia formed, Day 7 (HIV-1 NL 4-3 [2]; 5 μM, Day 7, C8166 cells): −
P 24 (HIV-1 NL 4-3 [2]; 5 μM, P 24 after Day 7, C8166 cells): 2 pg/mL
P 24 (HIV-1 NL 4-3 [2]; Day 7, 0.005 μM, Table 6): 23810 pg/mL
P 24 (HIV-1 NL 4-3 [2]; Day 7, 0.01 μM, Table 6): 21800 pg/mL and 23810 pg/mL
P 24 (HIV-1 NL 4-3 [2]; Day 7, 0.05 μM, Table 6): 9840 pg/mL and 11830 pg/mL
P 24 (HIV-1 NL 4-3 [2]; Day 7, 0.1 μM, Table 6): 433 pg/mL and 507 pg/mL
P 24 (HIV-1 NL 4-3 [2]; Day 7, 1 μM, Table 6): 104 pg/mL and 179 pg/mL
P 24 (HIV-1 NL 4-3 [2]; Day 7, 5 μM, Table 6): 2.36 pg/mL and 2.4 pg/mL
syncitia formed, Day 4 (HIV-1 NDK; 0.005 μM): (+)
syncitia formed, Day 5 (HIV-1 NDK; 0.005 μM): +
syncitia formed, Day 6 (HIV-1 NDK; 0.005 μM): ++
syncitia formed, Day 7 (HIV-1 NDK; 0.005 μM): ++
P 24 (HIV-1 NDK; 0.005 μM): 23810 pg/mL
syncitia formed, Day 4 (HIV-1 NDK; 0.01 μM): (+)
syncitia formed, Day 5 (HIV-1 NDK; 0.01 μM): +
syncitia formed, Day 6 (HIV-1 NDK; 0.01 μM): ++
syncitia formed, Day 7 (HIV-1 NDK; 0.01 μM): ++
P 24 (HIV-1 NDK; 0.01 μM): 23810 pg/mL
syncitia formed, Day 4 (HIV-1 NDK; 0.05 μM): −
syncitia formed, Day 5 (HIV-1 NDK; 0.05 μM): (+)
syncitia formed, Day 6 (HIV-1 NDK; 0.05 μM): ++
syncitia formed, Day 7 (HIV-1 NDK; 0.05 μM): ++
P 24 (HIV-1 NDK; 0.05 μM): 23810 pg/mL
syncitia formed, Day 4 (HIV-1 NDK; 0.1 μM): −
syncitia formed, Day 5 (HIV-1 NDK; 0.1 μM): (+)
syncitia formed, Day 6 (HIV-1 NDK; 0.1 μM): ++
syncitia formed, Day 7 (HIV-1 NDK; 0.1 μM): ++
P 24 (HIV-1 NDK; 0.1 μM): 17890 pg/mL and 23810 pg/mL
syncitia formed, Day 4 (HIV-1 NDK; 0.5 μM): −
syncitia formed, Day 5 (HIV-1 NDK; 0.5 μM): −
syncitia formed, Day 6 (HIV-1 NDK; 0.5 μM): +
syncitia formed, Day 7 (HIV-1 NDK; 0.5 μM): ++
syncitia formed, Day 4 (HIV-1 NDK; 1 μM): −
syncitia formed, Day 5 (HIV-1 NDK; 1 μM): −
syncitia formed, Day 6 (HIV-1 NDK; 1 μM): +
syncitia formed, Day 7 (HIV-1 NDK; 1 μM): ++
P 24 (HIV-1 NDK; 1 μM): 2840 pg/mL and 3810 pg/mL
syncitia formed, Day 4 (HIV-1 NDK; 5 μM): −
syncitia formed, Day 5 (HIV-1 NDK; 5 μM): −
syncitia formed, Day 6 (HIV-1 NDK; 5 μM): (+)
syncitia formed, Day 7 (HIV-1 NDK; 5 μM): +
P 24 (HIV-1 NDK; 5 μM): 3810 pg/mL
pIC50 (HIV-1 NDK; HIV 1 NDK, Table 10): 6.52
IC100 (HIV-1 NDK; HIV 1 NDK, Table 10): >5 µM
